Results as given in US20100184673A1, “USE OF PARATHYROID HORMONE ( 1-34 ) AS ANTI-HIV AGENT” (priority 2007, published 2010).

Legend:
HCMV strain AD169 = experiment: HCMV plaque reduction assay in MRC-5 cells; details: for % plaque reduction: HCMV in MRC-5 cells, peptide 10 micrograms per ml, 7-10 days
MRC-5 cells = experiment: in vitro; type: cell-based; details: human, 6 days
HIV-1IIIB = experiment: HIV-1 antiviral assay (CPE reduction) in CEM-SS cells, MTS readout; details: for antiviral activity of positive control compounds (in words): assay validity statement; for % CPE reduction in HIV-1 infected CEM-SS cells: peptide 10 micrograms per ml, 6 days post-infection, MTS
RAW 264.7 cells = experiment: Phagocytosis assay (Fluorescein-labeled Escherichia coli); details: peptide 10 micrograms per ml, flow cytometry
[1] = tested on: macrophages prepared from PBMC; experiment: TNF alpha production assay (LPS-stimulated macrophages, ELISA); type: cell-based, Human; details: peptide 10 micrograms per ml, lipopolysaccharide 200 ng/ml, overnight
Procedure: Human Peripheral Blood Mononuclear Cells (PBMC) were obtained from normal human donors. The macrophages were prepared by adherence of PBMC to the plastic wells of the plates. […] Not stimulated macrophages served as negative background control.
After overnight incubation, supernatants from the control and LPS-stimulated cultures were harvested and assayed for TNF alpha production employing a TNF alpha specific ELISA.

[2] = Cell viability of HepG2-2.2.15 cells (dye uptake assay); type: cell-based; details: human, peptide 10 micrograms per ml
Procedure: (§1) HepG2-2.2.15 cells were plated in 96-well microtiter plates. After 16-24 hours the confluent monolayer of HepG2-2.2.15 cells was washed and the medium was replaced with complete medium containing test peptide—10 micrograms per ml—in duplicate. Lamivudine (3TC) was used as the positive control, while media alone was added to the cells as a negative control (virus control). Three days later the culture medium was replaced with fresh medium containing the peptide. Six days following the initial administration of the peptide, the cell culture supernatants was collected, treated with pronase and DNAse and then used in a real-time quantitative TaqMan PCR assay. The PCR-amplified HBV DNA was detected in real-time by monitoring increases in fluorescence signals that result from the exonucleolytic degradation of a quenched fluorescence probe molecule that hybridizes to the mplified HBV DNA. For each PCR amplification, a standard curve was simultaneously generated using dilutions of purified HBV DNA. Antiviral activity was calculated from the reduction in HBV DNA levels (% virus control). A novel dye uptake assay was then employed to measure cell viability, which is used to calculate toxicity (% cell control).

in vitro [3] = details: human, CEM-SS cells
[4] = tested on: hepatitis B virus (HBV) ayw strain; experiment: HBV replication assay in HepG2-2.2.15 cells (TaqMan PCR of secreted HBV DNA); type: cell-based; details: peptide 10 micrograms per ml; six days; HBV DNA in supernatant
From the text: HepG2-2.2.15 is a stable cell line containing the hepatitis B virus (HBV) ayw strain genome (ATCC Cat. No. CRL-11997). Antiviral compounds blocking any late step of viral replication such as transcription, translation, pregenome encapsidation, reverse transcription, particle assembly and release can be identified and characterized using this cell line. In this assay, an active compound will reduce the production of secreted HBV from cells, measured by utilizing real time quantitative PCR (TaqMan) assay to directly and accurately measure HBV DNA copies.
HepG2-2.2.15 cells were plated in 96-well microtiter plates. After 16-24 hours the confluent monolayer of HepG2-2.2.15 cells was washed and the medium was replaced with complete medium containing test peptide—10 micrograms per ml—in duplicate. […] Six days following the initial administration of the peptide, the cell culture supernatants was collected, treated with pronase and DNAse and then used in a real-time quantitative TaqMan PCR assay. The PCR-amplified HBV DNA was detected in real-time by monitoring increases in fluorescence signals that result from the exonucleolytic degradation of a quenched fluorescence probe molecule that hybridizes to the mplified HBV DNA. […] Antiviral activity was calculated from the reduction in HBV DNA levels (% virus control). […]

MRSA = details: 5 micrograms per ml
A549 cells [5] = experiment: Apoptosis prevention assay (C2 ceramide, Annexin-5); type: cell-based, Human; details: 30 min pretreatment, peptide 10 micrograms per ml
From the text: Human A549 cells (carcinomic human alveolar basal epithelial cells) were utilized in the experiments employing the Annexin-5 apoptosis assay. Annexin-5 is a member of a highly conserved protein family that binds acidic phospholipids in a calcium-dependent manner. […] Phosphatidylserine is translocated from the inner side of the plasma membrane to the outer layer when cells undergo death by apoptosis or cell necrosis and serves as a signal by which cell destined for death are recognized by phagocytes. A549 cells were pretreated for 30 min with test peptide—10 micrograms per ml—followed by the exposure to C2 ceramide. Ceramide mediates cell apoptosis through the activation of the mitogen activating protein kinase (MAPK) and the stress activated kinase (JNK/SAPK). C2 ceramide is a synthetic, membrane soluble analog of ceramide.

[6] = tested on: Primary Human endothelial cells (HUVEC); experiment: Endothelial cell migration assay; type: cell-based; details: peptide 10 micrograms per ml, 22 hours
A549 cells [7] = experiment: Apoptosis induction assay (Annexin-5); type: cell-based, Human; details: 24 hours, peptide 10 micrograms per ml
From the text: Human A549 cells (carcinomic human alveolar basal epithelial cells) were utilized in the experiments employing the Annexin-5 apoptosis assay. Annexin-5 is a member of a highly conserved protein family that binds acidic phospholipids in a calcium-dependent manner. […] Phosphatidylserine is translocated from the inner side of the plasma membrane to the outer layer when cells undergo death by apoptosis or cell necrosis and serves as a signal by which cell destined for death are recognized by phagocytes. Test peptide—10 micrograms per ml—were exposed for 24 hours to the A549 cells before they were analyzed for signs of apoptosis.

Pseudomonas aeruginosa = type: cell-based; details: 5 micrograms per ml
spleen cells = experiment: Th1/Th2 cytokine profiling assay (Ovalbumin restimulated spleen cells, CBA kit); type: cell-based, Balb/c mice; details: peptide 10 micrograms per ml; Ovalbumin restimulation; 72 hours
From the text: The Balb/c mice (originated in 1923, it is a popular strain and is used in many different research disciplines. Also classified as an inbred from the production of 20 or more successive brother-sister matings, the Balb/c mouse is albino and small in size) were immunized on Days 1, 15, and 29 with Ovalbumin (Ovalbumin is the main protein found in egg white, commonly used to stimulate an immunological reaction in test animals) in PBS (5 micrograms/injection). On day 50, spleens of the mice were harvested (3 weeks after last boost with Ovalbumin). […] Thereafter, additional Ovalbumin was added to the cells at 10 micrograms/ml for in vitro restimulation of the cells. 72 hours later, cell supernatants were harvested and assayed using the Becton Dickinson Mouse Th1/Th2 Cytokine CBA Kit. This kit can be used to measure Interleukin-2 (IL-2), Interleukin-4 (IL-4), Interleukin-5 (IL-5), Interferon-γ (IFN-γ), and Tumor Necrosis Factor-α (TNF-α) protein levels in a single sample. The kit performance has been optimized for analysis of physiologically relevant concentrations (pg/ml levels) of specific cytokine proteins in tissue culture supernatants and serum samples.

HUVEC = experiment: Endothelial tube formation assay; type: cell-based, Human; details: peptide 10 micrograms per ml, 20 hours
From the text: […] control wes vehicle only. […] Raw data were expressed as average tubule lenghs in pixels±standard deviation.

A549 cells [8] = experiment: Propidium iodide cell cycle assay; type: cell-based, Human; details: 24 hours, peptide 10 micrograms per ml, FACS
From the text: Human A549 cells (carcinomic human alveolar basal epithelial cells) were utilized in the experiments employing the Propidium iodide cell cycle assay. The eukaryotic cell cycle is a series of events that take place in a cell leading to its replication. The regulation of the cell cycle involves steps crucial to the cell, including detecting and repairing genetic damage, and provision of various checks to prevent uncontrolled cell division. The molecular events that control the cell cycle are ordered and directional; that is, each process occurs in a sequential fashion.
Propidium iodide is an intercalating agent and a fluorescent molecule that can be used to stain DNA. Cells were incubated for 24 hours with test peptide—10 micrograms per ml—or left untreated. After that cells were trypsinized, suspended in medium+10% FCS, centrifuged (1000 rpm, 5 min), and the cell pellet resuspended in PBS (1 ml). The cells were pipetted into 2.5 ml absolute EtOH (final concentration approx. 70%) and incubated on ice for 15 min. Thereafter, cells were pelleted at 1500 rpm for 5 min and resuspended in Propidium iodide solution in PBS. After incubation for 40 min at 37° C., cells were analyzed in the FACS.

[9] = tested on: Human Peripheral Blood Mononuclear Cells (PBMC); experiment: T cell proliferation assay (PHA, 3H-thymidine); type: cell-based; details: peptide 10 micrograms per ml
Procedure: (§2) Human Peripheral Blood Mononuclear Cells (PBMC) were obtained from normal human donors. The T cell proliferation was induced by stimulation of the cells with the T cell mitogen phytohemagglutinin (PHA), either in the absence (positive proliferation control), or in the presence of test peptide—10 micrograms per ml—to examine their effects on the T cell proliferating response. 10^5/well PBMC were plated in 96-well microtiter plates and assayed in duplicate with the peptide. Cell cultures were incubated at 37° C. for 3 days in a 5% CO2 incubator and were thereafter pulsed with 1microCi/well ^3H-thymidine for additional 12 hours of culture. At the end of incubation time, the plates were harvested and the cells counted by liquid scintillation for the incorporation of ^3H-thymidine as a measure of T cell proliferation.

in vitro [10] = type: cell-based; details: human, MRC-5 cells
Streptococcus pneumoniae = type: cell-based; details: 5 micrograms per ml
[11] = tested on: Human Peripheral Blood Mononuclear Cells (PBMC); experiment: B cell proliferation assay (SAC plus Interleukin-2, 3H-thymidine); type: cell-based; details: peptide 10 micrograms per ml
Procedure: as §2, with “The B” for “The T”, “the B” for “the T”, “mitogen Staphylococcus aureus Cowans I (SAC) plus Interleukin-2,” for “mitogen phytohemagglutinin (PHA),”, “cell” for “cell proliferating”, “of B” for “of T”

HepG2-2.2.15 cells = experiment: Cell viability of HepG2-2.2.15 cells (dye uptake assay); type: cell-based; details: peptide 10 micrograms per ml
Procedure: as §1

Nc1nc(O)c2ncn(COC(CO)CO)c2n1 [Ganciclovir]
% plaque reduction (HCMV strain AD169): 100% | antiviral activity of positive control compound (in words) (HCMV strain AD169; assay validity statement): expected levels of antiviral activity | % Cell viability (MRC-5 cells): 100%

CC(C)(C)NC(=O)[C@@H]1CN(Cc2cccnc2)CCN1C[C@@H](O)C[C@@H](Cc1ccccc1)C(=O)N[C@H]1c2ccccc2C[C@H]1O [Indinavir, indinavir]
antiviral activity of positive control compounds (in words) (HIV-1IIIB): expected levels of antiviral activity | % CPE reduction in HIV-1 infected CEM-SS cells (HIV-1IIIB): 100%

CC[C@H](C)[C@H](NC(=O)[C@H](CCC(=O)O)NC(=O)[C@H](CO)NC(=O)[C@@H](NC(=O)[C@@H](N)CO)C(C)C)C(=O)N[C@@H](CCC(N)=O)C(=O)N[C@@H](CC(C)C)C(=O)N[C@@H](CCSC)C(=O)N[C@@H](Cc1cnc[nH]1)C(=O)N[C@@H](CC(N)=O)C(=O)N[C@@H](CC(C)C)C(=O)NCC(=O)N[C@@H](CCCCN)C(=O)N[C@@H](Cc1cnc[nH]1)C(=O)N[C@@H](CC(C)C)C(=O)N[C@@H](CC(N)=O)C(=O)N[C@@H](CO)C(=O)N[C@@H](CCSC)C(=O)N[C@@H](CCC(=O)O)C(=O)N[C@@H](CCCN=C(N)N)C(=O)N[C@H](C(=O)N[C@@H](CCC(=O)O)C(=O)N[C@@H](Cc1c[nH]c2ccccc12)C(=O)N[C@@H](CC(C)C)C(=O)N[C@@H](CCCN=C(N)N)C(=O)N[C@@H](CCCCN)C(=O)N[C@@H](CCCCN)C(=O)N[C@@H](CC(C)C)C(=O)N[C@@H](CCC(N)=O)C(=O)N[C@@H](CC(=O)O)C(=O)N[C@H](C(=O)N[C@@H](Cc1cnc[nH]1)C(=O)N[C@@H](CC(N)=O)C(=O)N[C@@H](Cc1ccccc1)C(=O)O)C(C)C)C(C)C [pTH (1-34)]
% of control phagocytosis (RAW 264.7 cells): 102.9% | % of LPS induction [1]: 117.1% | viability at 144 h, 10 micrograms per ml [2]: 100% | viability at 10 micrograms per ml (in vitro [3]): 99.4% | % inhibition of HBV replication in HEP G2 cells [4]: 0.0% | % inhibition (MRSA): 0.0% | % plaque reduction (HCMV strain AD169): 0.0% | % prevention of ceramide induced apoptosis (A549 cells [5]): 23.85% | % inhibition of migration [6]: −4.0% | % of induction (A549 cells [7]): 1.1% | % CPE reduction in HIV-1 infected CEM-SS cells (HIV-1IIIB): 18.1% | % inhibition (Pseudomonas aeruginosa): 0.0% | IFNγ spleen cells; TH1 response (% of control) (spleen cells): 68.6 % of control | IL-2 spleen cells (% of control) (spleen cells): 180.4 % of control | IL-4 spleen cells; TH2 response (% of control) (spleen cells): 135.2 % of control | IL-5 spleen cells; TH2 response (% of control) (spleen cells): 85.9 % of control | TNF-a spleen cells; TH1 response (% of control) (spleen cells): 114.1 % of control | % inhibition of tube formation (HUVEC): 28.0% | Cell cycle analysis G0/G1 (A549 cells [8]): 59.1 | Cell cycle analysis G2/M (A549 cells [8]): 7.5 | Cell cycle analysis S (A549 cells [8]): 34.4 | % of PHA induced control [9]: 110.2% | viability at 144 h (in vitro [10]): 100% | % inhibition (Streptococcus pneumoniae): 0.0% | % of SAC/IL2 induced control [11]: 106.0%

Nc1ccn([C@@H]2CS[C@H](CO)O2)c(=O)n1 [3TC, Lamivudine, reference compound]
% Cell viability (HepG2-2.2.15 cells): 95.8%

Cc1cn([C@H]2C[C@H](N=[N+]=[N-])[C@@H](CO)O2)c(=O)[nH]c1=O [AZT, zidovudine]
antiviral activity of positive control compounds (in words) (HIV-1IIIB): expected levels of antiviral activity | % CPE reduction in HIV-1 infected CEM-SS cells (HIV-1IIIB): 99%
